The source of these data is ChEMBL document CHEMBL1201862, “PubChem BioAssay data set” (2004).

SMILES strings stand for the structures. The source made the active and inactive calls.

Assay [1] can be described thus: luciferase reporter signal suppression in cells – H4 neuroglioma cells, luminescence, dose response (AID 1990). The format is functional, cell-based. A general note: Reporter assays use an easily measured gene product as a stand-in for the process of interest.
Assay [2] can be described thus: Luminescence Cell-Based Dose Response HTS to Identify Inhibitors of 5'UTR Stem-Loop Driven Prion Protein mRNA Translation in H4 Neuroglioblastoma Cells. [Related pubchem assays: 1827 (Project Summary), 1813 (Primary HTS)]. The format is functional.
A short description of assay [3]: alpha-synuclein stem-loop luciferase translation blockers – H4 neuroglioma cells, luminescence, confirmation (AID 1988). Type of assay: functional, cell-based.
A short description of assay [4]: microbe, parasite or virus in culture. The format is functional. To be noted: Mycobacterium tuberculosis.
Assay [5] is described as follows: Luminescence Cell-Based Dose Retest to Confirm Inhibitors of Cancer Stem Cells. [Related pubchem assays (depositor defined):AID2717, AID2721]. To be noted: Homo sapiens. The format is functional.
The next assay deals with HEK293. Nature of the assay: EBV LMP1 TES2 canonical NF-kB signalling blockers – cell-based, HEK293, luciferase, cherry-pick, dose response (AID 588343). The format is functional. Conditions: Homo sapiens.
The next assay concerns INS1. Nature of the assay: INS-1E survival protection against cytokine death – cell-based, luminescence, retest, dose response (AID 449756).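 Further: cell death triggered by IL-1 beta plus TNF-alpha plus IFN-gamma mixture; protective hits raise ATP signal compared with cytokine alone wells.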 Type of assay: functional. To be noted: Rattus norvegicus.
Assay [6] in a line: blockers of HIV-1 envelope-mediated cell-cell fusion – cherry-pick, dose response (AID 652057). The format is functional, cell-based.
Assay [7] can be described thus: viability loss in CEM21 cells – cell-based, CellTiter-Glo luminescence, cherry-picked, cytotoxicity control for viral fusion inhibitor project, dose response (AID 652042).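 Further: potency for signal decrease meaning cytotoxicity.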 The format is functional. For orientation: Cellular ATP, detected with luciferase, serves as a proxy for viable cell number.
A short description of assay [8]: blockers of HIV-1 ZM109 envelope-driven cell-cell fusion – HeLa effector, CEM target cells, luciferase, cherry-pick, dose response (AID 652058).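 Further: luciferase signal from HIV-1 Env mediated cell-cell fusion of effector and target cells.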 The format is functional, cell-based.
The target of another assay is Paired box protein Pax-8 (Homo sapiens, UniProt Q06710). Nature of the assay: PAX8 transcriptional activity inhibition in RMG-I – RMG-I cells, luciferase, cherry-pick, dose response (AID 687027).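 Further: luciferase reporter driven by Pax8 target thyroperoxidase promoter measured by SteadyGlo luminescence.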 The format is functional, cell-based.
Paired box protein Pax-8, sequence (Q06710 whole entry, the tested form may be a part): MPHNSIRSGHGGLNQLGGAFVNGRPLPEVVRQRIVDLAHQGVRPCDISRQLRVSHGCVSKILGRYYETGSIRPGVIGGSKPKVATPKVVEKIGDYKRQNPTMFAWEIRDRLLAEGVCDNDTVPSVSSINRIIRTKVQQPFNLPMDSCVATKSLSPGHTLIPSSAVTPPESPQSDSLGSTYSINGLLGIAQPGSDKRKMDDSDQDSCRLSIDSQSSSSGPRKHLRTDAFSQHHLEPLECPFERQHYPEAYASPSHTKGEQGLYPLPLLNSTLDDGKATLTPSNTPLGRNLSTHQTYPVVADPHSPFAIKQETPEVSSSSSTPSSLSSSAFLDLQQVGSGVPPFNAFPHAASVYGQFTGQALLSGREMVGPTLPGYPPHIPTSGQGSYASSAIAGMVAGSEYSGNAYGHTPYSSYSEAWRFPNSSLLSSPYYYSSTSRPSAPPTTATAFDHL
Assay [9] in a line: off-target signal loss in HeLa-CEM21 co-culture – HeLa F-luc CTL cells, cherry-picked, counter-screen for HIV-1 Env fusion inhibitor project, dose response (AID 652040).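 Further: potency for signal decrease marking cytotoxic or nonspecific inhibition.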 The format is functional, cell-based. In general terms: A counterscreen serves to expose hits that act by an unwanted route or on another target.
The nature of assay [10]: HIV-1 AD8 envelope cell-cell fusion blockers – cherry-pick, dose response (AID 652062).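 Further: luciferase signal from cell-cell fusion driven by HIV-1 clade B AD8 Env; potency is for inhibitors of fusion seen as a drop in luminescence.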 The format is functional, cell-based.
The target of assay [11] is Luciferin 4-monooxygenase (Photinus pyralis, UniProt P08659). Nature of the assay: inhibition of purified Photinus pyralis luciferase – biochemical, luminescence, dose response (AID 1891).
Luciferin 4-monooxygenase, sequence (P08659 whole entry): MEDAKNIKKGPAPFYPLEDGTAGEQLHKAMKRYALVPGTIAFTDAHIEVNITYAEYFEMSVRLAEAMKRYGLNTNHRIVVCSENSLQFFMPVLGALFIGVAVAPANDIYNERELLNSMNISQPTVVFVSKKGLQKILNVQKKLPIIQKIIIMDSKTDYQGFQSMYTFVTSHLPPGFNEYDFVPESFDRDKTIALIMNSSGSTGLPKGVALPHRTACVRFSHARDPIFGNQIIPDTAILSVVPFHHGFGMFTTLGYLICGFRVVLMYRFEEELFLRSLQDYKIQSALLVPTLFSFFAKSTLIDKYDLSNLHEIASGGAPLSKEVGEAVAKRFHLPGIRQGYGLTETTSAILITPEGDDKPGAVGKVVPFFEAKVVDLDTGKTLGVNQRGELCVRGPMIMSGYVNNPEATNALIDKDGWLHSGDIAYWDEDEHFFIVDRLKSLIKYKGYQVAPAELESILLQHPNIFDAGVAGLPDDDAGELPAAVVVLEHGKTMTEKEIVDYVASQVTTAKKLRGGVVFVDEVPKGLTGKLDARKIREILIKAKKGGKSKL
Assay [12] can be described thus: Luminescence Cell-Based Dose Confirmation HTS to Identify Inhibitors of Platelet Dense Granule Release. [Related pubchem assays: 1663 (Primary HTS), 1678 (Summary of Project)]. Type of assay: functional.
Assay [13] is described as follows: THP-1 cell cytotoxicity, dose response, cytotoxicity control for non-replicating M. tuberculosis project (AID 489025). The format is functional.
Assay [14] can be described thus: Vero E6 cell cytotoxicity, dose response, cytotoxicity control for non-replicating M. tuberculosis project, secondary assay (AID 492998). Type of assay: functional, VeroE6. To be noted: Vero C1008.
Assay [15] in a line: cells. The format is functional.
The nature of assay [16]: A549 cell cytotoxicity, dose response, cytotoxicity control, plate reader, cherry-pick, antagonist series (AID 743412). The format is functional, cell-based.
A short description of assay [17]: toxicity toward HepG2 liver cells – cell-based, plate reader, cherry-pick, antagonist series, cytotoxicity control, dose response (AID 743416). Type of assay: functional.
Assay [18] can be described thus: blockers of bursicon-stimulated LGR2 cAMP reporter – cell-based, HEK293, CRE-luciferase reporter, cherry pick, set 2, dose response (AID 743343).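 Further: transfected cells were stimulated with diluted bursicon conditioned medium after compound addition.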 The format is functional.
A short description of assay [19]: blockade of melanocortin 4 receptor signaling – cell-based, plate reader, cherry pick, counter-screen for LGR2 antagonist project, dose response (AID 743444).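 Further: transfected HEK 293 cells stimulated with alpha-MSH peptide; potency of inhibitors of the alpha-MSH evoked signal.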 The format is functional.
The nature of assay [20]: viability loss in HEK293 cells – cell-based, plate reader, cherry-picked samples, cytotoxicity control, dose response (AID 743446). Type of assay: functional.
The target of a further assay is T1, Coagulation factor XII (Homo sapiens, UniProt P00748).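 Further: activated factor XIIa alpha cleaving a fluorogenic AMC peptide substrate; inhibitor potency from loss of enzyme activity.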
T1 sequence (P00748 whole entry): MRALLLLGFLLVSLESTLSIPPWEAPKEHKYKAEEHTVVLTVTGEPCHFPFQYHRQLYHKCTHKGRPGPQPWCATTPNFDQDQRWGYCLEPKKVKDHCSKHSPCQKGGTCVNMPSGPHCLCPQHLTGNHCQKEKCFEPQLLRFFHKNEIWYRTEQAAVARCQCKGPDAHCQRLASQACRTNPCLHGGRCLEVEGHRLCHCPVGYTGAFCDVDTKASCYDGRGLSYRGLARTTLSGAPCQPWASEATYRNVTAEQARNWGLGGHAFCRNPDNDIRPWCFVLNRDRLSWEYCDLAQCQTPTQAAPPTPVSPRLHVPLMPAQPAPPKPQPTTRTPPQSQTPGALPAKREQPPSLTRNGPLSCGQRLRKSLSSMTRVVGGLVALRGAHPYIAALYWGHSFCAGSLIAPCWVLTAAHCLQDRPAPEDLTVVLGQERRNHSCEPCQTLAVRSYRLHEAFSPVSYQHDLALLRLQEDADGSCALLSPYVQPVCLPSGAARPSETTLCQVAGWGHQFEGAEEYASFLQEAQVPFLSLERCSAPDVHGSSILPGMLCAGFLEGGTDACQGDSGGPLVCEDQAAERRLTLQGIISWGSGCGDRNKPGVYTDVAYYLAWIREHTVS
Type of assay: functional.

Another assay has as its target Mu-type opioid receptor (Homo sapiens, UniProt P35372). Type of assay: functional, cell-based.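 Further: U2OS cells with beta-arrestin recruitment to OPRM1 by beta-gal complementation.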
Assay [21] concerns the target 5-hydroxytryptamine receptor 2A (Mus musculus, UniProt P35363). Type of assay: functional, cell-based.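 Further: CHO-K1 cells with tagged receptor and beta-arrestin; agonist potency measured as compound-induced activation of the receptor.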
A short description of assay [22]: cells. The format is functional, cell-based.
In assay [23] the target is T2, Nuclear receptor subfamily 0 group B member 1 (Homo sapiens, UniProt P51843).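 Further: HEK293T cells transfected with SF-1 and DAX-1 plus StAR promoter luciferase reporter.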
T2 sequence (P51843 whole entry): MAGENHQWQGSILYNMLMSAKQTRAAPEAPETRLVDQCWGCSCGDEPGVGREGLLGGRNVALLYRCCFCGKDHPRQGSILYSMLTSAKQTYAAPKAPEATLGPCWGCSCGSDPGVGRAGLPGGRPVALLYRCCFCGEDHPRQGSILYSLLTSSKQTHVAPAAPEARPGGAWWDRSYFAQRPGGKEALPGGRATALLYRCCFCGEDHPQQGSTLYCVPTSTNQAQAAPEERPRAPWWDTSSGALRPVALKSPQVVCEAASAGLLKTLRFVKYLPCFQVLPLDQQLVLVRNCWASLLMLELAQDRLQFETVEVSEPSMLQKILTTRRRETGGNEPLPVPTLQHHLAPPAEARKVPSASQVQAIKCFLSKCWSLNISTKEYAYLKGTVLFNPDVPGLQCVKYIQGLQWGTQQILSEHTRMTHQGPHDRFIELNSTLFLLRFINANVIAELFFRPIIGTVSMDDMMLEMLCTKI
The format is functional, cell-based.

A short description of assay [24]: NIH-3T3 fibroblast cytotoxicity, dose response, cytotoxicity control, cell-based, fluorescence, Alamar Blue, secondary assay (AID 2327).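 Further: NIH-3T3 mouse fibroblasts cultured with fluconazole at 8 µg/mL.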 Type of assay: functional.
The nature of assay [25]: fluconazole-exposed Candida albicans growth modulators – fluorescence, retest, confirmation (AID 2467). The format is functional, cell-based.

5-hydroxytryptamine receptor 2A, sequence (P35363 whole entry): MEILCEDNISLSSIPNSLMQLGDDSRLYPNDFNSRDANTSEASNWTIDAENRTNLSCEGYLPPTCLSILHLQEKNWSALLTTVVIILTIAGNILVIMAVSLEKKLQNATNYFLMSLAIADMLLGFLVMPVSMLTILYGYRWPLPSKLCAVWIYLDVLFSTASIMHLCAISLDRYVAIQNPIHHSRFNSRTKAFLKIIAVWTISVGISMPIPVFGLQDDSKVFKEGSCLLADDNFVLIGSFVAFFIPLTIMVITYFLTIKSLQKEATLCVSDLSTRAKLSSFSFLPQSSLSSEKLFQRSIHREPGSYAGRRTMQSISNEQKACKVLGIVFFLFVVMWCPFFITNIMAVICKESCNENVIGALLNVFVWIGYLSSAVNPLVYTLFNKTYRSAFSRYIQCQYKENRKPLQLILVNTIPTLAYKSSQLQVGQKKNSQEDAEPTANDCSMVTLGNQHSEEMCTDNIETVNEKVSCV
Mu-type opioid receptor, sequence (P35372 whole entry): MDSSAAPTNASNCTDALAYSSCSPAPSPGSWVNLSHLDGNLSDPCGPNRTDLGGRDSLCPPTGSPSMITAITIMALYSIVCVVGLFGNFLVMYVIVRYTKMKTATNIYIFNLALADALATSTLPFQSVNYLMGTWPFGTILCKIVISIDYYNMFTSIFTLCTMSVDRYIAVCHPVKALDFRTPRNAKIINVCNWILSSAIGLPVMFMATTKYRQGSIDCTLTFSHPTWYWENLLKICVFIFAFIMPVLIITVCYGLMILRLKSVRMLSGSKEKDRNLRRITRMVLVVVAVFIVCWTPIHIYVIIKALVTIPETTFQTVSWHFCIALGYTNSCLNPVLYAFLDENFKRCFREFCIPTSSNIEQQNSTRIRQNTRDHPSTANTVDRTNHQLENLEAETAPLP

By EC50 is commonly meant the concentration giving half of the maximal effect. For orientation: AC50 means the concentration at which the activity in the assay is half-maximal. As to `CCN(CC)S(=O)(=O)c1cccc(NC(=O)Nc2cccc(C(F)(F)F)c2)c1`, the EC50 in assay [1], in [2] and in assay [3] was > 120 µM (not active) throughout. Moreover, in assay [4], the CC50 is 13.8 µM (active). In addition, the AC50 in assay [5] was 3.36 µM (active); in the assay on HEK293 it was 21.4 µM (active); in the assay with INS1 it was 5.03 µM (active); in [6], 0.542 µM (active); in assay [7], 13.6 µM (active); in [8], < 0.26 µM (active). In addition, the AC50 was 14.9 µM (active) at Paired box protein Pax-8, 7.47 µM (active) in assay [9] and 10.4 µM (active) in assay [10].
What is called IC50 is the concentration needed to halve the response being measured. In the case of `Cc1cnc(NC(=O)c2ccccn2)s1`, the EC50 in assay [11] is 34.9 µM (active); in [12], 18 µM (active). Also, the CC50 in assay [13] is > 40 µM (active); in [14], > 20 µM (active). For the same compound, the IC50 in “cells [15]” is 4.77 µM (active). Moreover, the AC50 in the assay with HEK293 is 8.48 µM (active); in [16] it was 24 µM (active); in [17], 27.8 µM (active); in [18], 7.9 µM (active); in assay [19], 6.72 µM (active); in [20] it was 30.8 µM (active).
With `O=C(CN1CCN(c2ccccn2)CC1)Nc1ccc(Oc2ccccc2)cc1`, at Coagulation factor XII, the IC50 is > 50 µM (inactive). Further, the EC50 on Mu-type opioid receptor was 92.4 µM (inactive); in assay [21], 1.17 µM (active).
Take `O=C(O)c1cc(/C=C/c2ccc(N3CCOCC3)cc2)nc2ccccc12`: in the assay on HEK293, the AC50 is 3.14 µM (active). For the same compound, the IC50 (in “cells [22]”; in [23]) was > 67.5 µM (inactive) in each case.
As for `CC(=O)Oc1ccc2c(=O)c(-c3nc4ccccc4s3)coc2c1`, the EC50 was > 150 µM (inactive) in [24], 3.08 µM (active) in assay [25], 3.63 µM (active) in assay [11] and 3.83 µM (active) in assay [12]. The AC50 in assay [5] was 6.27 µM (active). Also, the IC50 (in the assay “cells [22]”; in assay [23]) was > 67.5 µM (inactive) each time.
Consider `CCOCC(=O)NC1CCc2cc(OC(=O)COCC)c(OC)c(OC)c2-c2ccc(SC)c(=O)cc21` (stereo not given), for which the IC50 in “cells [22]” was > 67.5 µM (inactive); in assay [23], 0.244 µM (active). The AC50 on Paired box protein Pax-8 was < 0.26 µM (active).
